Experimental data as given in PMC8373983, “Effect of salinity on the zinc(II) binding efficiency of siderophore functional groups and implications for salinity tolerance mechanisms in barley” (Scientific Reports, 2021).
Where “and” joins values, the source holds several entries; their conditions need not be identical. Equal values may be shown once.

How the values were obtained:
[1] = Ligand protonation constants, potentiometric titration in NaCl; format: physicochemical
Method: (§1) Potentiometric measurements were carried out at T = 298.1 ± 0.1 K in thermostatted cells. The setup consisted of a Metrohm model 888 Titrando apparatus controlled by Metrohm TiAMO 1.2 software equipped with a combined gel electrode (VWR model 662 1759). Estimated precision was 0.2 mV and 0.003 ml for the electromotive force and titrant volume readings, respectively. All the potentiometric titrations were carried out under magnetic stirring and bubbling purified presaturated N2 through the solution to exclude O2 and CO2.
(§2) A 30 ml solution containing each ligand ([L] = 5 – 10 mM), NaCl and HCl was titrated with standard NaOH solutions. For the zinc(II)/ligand systems, the titrant solutions consisted of different amounts of ligand ([L] = 5 − 10 mM), zinc(II) ([Zn] = 0.5—5 mM) and a suitable amount of HCl and NaCl. All the measurements were carried out with an excess of the ligand, with respect to zinc(II) and at different zinc(II):ligand molar ratios. The selection of ratios investigated was determined by simulating titrations using Hyperquad Simulation and Speciation computer software (HySS)[41]. [Zn] and [L] were negligible compared to the background electrolyte concentrations. […] To account for the influence of zinc(II) hydrolysis in the zinc(II)/ligand systems, zinc(II) titrations were carried out separately at each ionic strength to determine the hydroxide constants so that these constants could be included in the equilibrium model used to refine the titration data. In these titrations, the zinc(II) concentration in the analyte solution was 0.7 mM.
(§3) Before each experiment, independent titrations of strong acid solutions with standard base were carried out under the same medium and ionic strength conditions as the systems to be investigated, with the aim of determining the electrode potential (E^0’) using GLEE software. In this way, the pH scale used was the […], pH = -log [H]^+, where [H]^+ is the free proton concentration. For each titration, approximately 80 to 100 data points were collected. The equilibrium state during titrations was checked by confirming the time required to reach equilibrium.
(§4) The software program Hyperquad was used to determine the equilibrium model and to calculate pKa and stability constants from the potentiometric data set[43]. For each set of pKa constants or zinc(II):ligand ratio studied, at least two repeat titrations were performed. The titration curves for each system were treated as a single set when refining the stability constants. This meant that the refinement procedure was run on both curves at the same time to derive a single set of constants. The error reported on the stability constants is the standard deviation given in the Hyperquad output file. Examples of Hyperquad files for the zinc(II)/PYR system are provided on the Zenodo repository (https://doi.org/10.5281/zenodo.4641710).
(§5) The ionic strength dependence of the stability constants was studied with the modified version of the Extended Debye–Hückel equation[28]. The Monte Carlo method, as described by Hu et al.[43], was used to estimate 95% confidence intervals on the parameters of ionic strength dependence; for each species, predicted stability constants were resampled using an inverse of the cumulative normal distribution function to give sets of simulated data from which the unknown parameters were optimized. An example Excel calculation file for the application of the modified version of the Extended Debye–Hückel equation to the zinc(II)/PYR system (including the calculation of error on parameters of ionic strength dependence) has been uploaded to the Zenodo repository (https://doi.org/10.5281/zenodo.4641710).
(§6) To quantify the improvement of using a direct vs. indirect method for studying ionic strength dependence, the Davies equation (Eq. 3) was applied to the zinc(II)/PYR data. Speciation calculations for a [Zn] = 10^–6 M and [L] = 10^–5 M system at infinite dilution were conducted with the aid of HySS. […]

[2] = Zinc(II)-ligand stability constants, potentiometric titration in NaCl; format: binding
Method: as §1, §2, §3, §4, §5, §6

[3] = Davies equation on 0.05 M NaCl data
[4] = Davies equation on 0.15 M NaCl data
[5] = Davies equation on 0.30 M NaCl data
[6] = Davies equation on 0.70 M NaCl data
[7] = Davies equation on 1.00 M NaCl data
[8] = intrinsic, modified Extended Debye–Hückel fit (direct), T = 298.1 K
[9] = parameter of ionic strength dependence, NaCl, T = 298.1 K

Oc1ccccc1O [PYR, pyrocatecholate]
log β, 2H+ + L = H2L ([1]; 0.05 M NaCl, T = 298.1 K): 21.36 ± 0.07 | log β, H+ + L = HL ([1]; 0.05 M NaCl, T = 298.1 K): 12.16 ± 0.03 | log β, 2H+ + L = H2L ([1]; 0.15 M NaCl, T = 298.1 K): 21.14 ± 0.02 | log β, H+ + L = HL ([1]; 0.15 M NaCl, T = 298.1 K): 11.97 ± 0.01 | log β, 2H+ + L = H2L ([1]; 0.30 M NaCl, T = 298.1 K): 21.06 ± 0.02 | log β, H+ + L = HL ([1]; 0.30 M NaCl, T = 298.1 K): 11.94 ± .01 | log β, 2H+ + L = H2L ([1]; 0.70 M NaCl, T = 298.1 K): 21.04 ± 0.02 | log β, H+ + L = HL ([1]; 0.70 M NaCl, T = 298.1 K): 11.96 ± 0.01 | log β, 2H+ + L = H2L ([1]; 1.00 M NaCl, T = 298.1 K): 20.88 ± 0.02 | log β, H+ + L = HL ([1]; 1.00 M NaCl, T = 298.1 K): 11.79 ± 0.01 | log β0 (indirect), H2L [1, 3]: 21.61±0.07 | log β0 (indirect), HL- [1, 3]: 12.50±0.03 | log β0 (indirect), H2L [1, 4]: 21.48±0.02 | log β0 (indirect), HL- [1, 4]: 12.45±0.01 | log β0 (indirect), H2L [1, 5]: 21.45±0.02 | log β0 (indirect), HL- [1, 5]: 12.48±0.01 | log β0 (indirect), H2L [1, 6]: 21.4±0.02 | log β0 (indirect), HL- [1, 6]: 12.46±0.01 | log β0 (indirect), H2L [1, 7]: 21.18 ±0.02 | log β0 (indirect), HL- [1, 7]: 12.20±0.01 | logβ^0, 2H+ + L = H2L [1, 8]: 21.87±0.001 and 21.874 ± 0.001 | logβ^0, H+ + L = HL [1, 8]: 12.49 ±0.009 and 12.489 ± 0.009 | C, 2H+ + L = H2L [1, 9]: 0.296 ± 0.001 | C, H+ + L = HL [1, 9]: 0.183 ± 0.015 | log β, Zn2+ + 2L = ZnL2 ([2]; 0.05 M NaCl, T = 298.1 K): 16.66±0.04 | log β, Zn2+ + L = ZnL (1:1) ([2]; 0.05 M NaCl, T = 298.1 K): 9.29±0.03 | log β, Zn2+ + 2L = ZnL2 ([2]; 0.15 M NaCl, T = 298.1 K): 15.93±0.02 | log β, Zn2+ + L = ZnL (1:1) ([2]; 0.15 M NaCl, T = 298.1 K): 8.89±0.02 | log β, Zn2+ + 2L = ZnL2 ([2]; 0.30 M NaCl, T = 298.1 K): 15.32±0.01 | log β, Zn2+ + L = ZnL (1:1) ([2]; 0.30 M NaCl, T = 298.1 K): 8.57±0.01 | log β, Zn2+ + 2L = ZnL2 ([2]; 0.70 M NaCl, T = 298.1 K): 15.09±0.01 | log β, Zn2+ + L = ZnL (1:1) ([2]; 0.70 M NaCl, T = 298.1 K): 8.50±0.01 | log β, Zn2+ + 2L = ZnL2 ([2]; 1.00 M NaCl, T = 298.1 K): 14.59±0.01 | log β, Zn2+ + L = ZnL (1:1) ([2]; 1.00 M NaCl, T = 298.1 K): 8.23±0.01 | log β0 (indirect), ZnL [2, 3]: 9.97±0.03 and 9.97 | log β0 (indirect), ZnL22- [2, 3]: 16.54±0.04 and 16.54 | log β0 (indirect), ZnL [2, 4]: 9.85±0.02 and 9.85 | log β0 (indirect), ZnL22- [2, 4]: 15.70±0.02 and 15.70 | log β0 (indirect), ZnL [2, 5]: 9.65±0.01 and 9.65 | log β0 (indirect), ZnL22- [2, 5]: 15.03±0.01 and 15.03 | log β0 (indirect), ZnL [2, 6]: 9.50±0.01 and 9.50 | log β0 (indirect), ZnL22- [2, 6]: 14.84±0.01 and 14.84 | log β0 (indirect), ZnL [2, 7]: 9.05 ±01 and 9.05 | log β0 (indirect), ZnL22- [2, 7]: 14.42±0.01 and 14.42 | decrease in the 1:1 zinc(II) stability constant ([2]; between 0.00 and 1.00 M NaCl): 20% | decrease of the 1:1 zinc(II) stability constant ([2]; between 0.00 and 1.00 M NaCl): 1.67 logβ units | logβ0, Zn2+ + 2L = ZnL2 [2, 8]: 17.136±0.007 and 17.14±0.007 and 17.14 | logβ0, Zn2+ + L = ZnL (1:1) [2, 8]: 9.90±0.001 and 9.90 | C, Zn2+ + 2L = ZnL2 ([2]; parameter of ionic strength dependence, NaCl): -0.924±0.012
